Consider 16 molecules from ChEMBL document CHEMBL1201862, “PubChem BioAssay data set” (2004).

Some test systems named below: SNB-75; TK-10; HCT-116; NCI-H460; NCI-H226; SK-MEL-2; SNB-19; OVCAR-3; HCT-15; COLO 205; A498; RPMI-8226; SR; EKVX; SW-620.
Holding throughout (test): growth of human tumour cells (NCI), 48 h

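A five-concentration, 48-hour dose response in 96-well plates underlies each endpoint, interpolated linearly between surrounding concentrations. GI50: concentration for 50% inhibition of growth.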 Activity calls are given as the source filed them. Rule as the data show it: active = GI50 up to about 1.1 µM and inactive = higher.

On to `O=C(NN1C(=O)C(Cl)C1c1ccc(O)cc1)c1ccccc1O` (stereo not drawn), for which the GI50 with SNB-75 was 34.8 µM (inactive); in the experiment on TK-10, 24.7 µM (inactive); in the experiment on HCT-116, 13.7 µM (inactive); in the experiment on NCI-H460, 17.5 µM (inactive); with NCI-H226 it was 16 µM (inactive); with SK-MEL-2 it was 19.9 µM (inactive). The GI50 is 23 µM (inactive) in the experiment on SNB-19, 16.7 µM (inactive) with OVCAR-3 and 14.6 µM in the experiment with HCT-15.
Turning to `O=C1C=C(O)c2nc(O)ccc2C1=O`, the GI50 in the experiment on SNB-75, in the experiment with TK-10, in the experiment with COLO 205, with HCT-116, in the experiment with NCI-H460 and in the experiment on A498 was > 100 µM (inactive) each time. Besides, the GI50 with NCI-H226 was > 100 µM (inactive); in the experiment on SNB-19, > 100 µM (inactive); in the experiment on OVCAR-3, > 100 µM (inactive); in the experiment on RPMI-8226 it was > 100 µM (inactive); in the experiment on HCT-15 it was over 100 µM; in the experiment on SR, > 100 µM (inactive). Also, the GI50 in the experiment with EKVX and in the experiment with SW-620 was > 100 µM (inactive) in each case.
As for `Cc1cc(C)[n+]2c(c1)C=CC2.[O-][Cl+3]([O-])([O-])[O-]`, the GI50 in the experiment on SNB-75 was 6.05 µM (inactive); with TK-10 it was 92 µM (inactive); in the experiment on COLO 205, 15 µM (inactive); in the experiment with NCI-H460 it was 34.8 µM (inactive); in the experiment with NCI-H226, 15.6 µM (inactive); in the experiment on SK-MEL-2, 11 µM (inactive). Further, the GI50 in the experiment on SNB-19 is 42.7 µM (inactive); in the experiment on OVCAR-3, 11.7 µM (inactive); in the experiment with EKVX, 21.6 µM (inactive); with SW-620, 4.18 µM (inactive).
As to `COc1ccc(CC#C/C=C/C(=O)NCC(C)C)cc1`, the GI50 in the experiment with SNB-75 was 55 µM (inactive); with TK-10, > 100 µM (inactive); in the experiment on COLO 205, > 100 µM (inactive); in the experiment with HCT-116 it was > 100 µM (inactive); with NCI-H460, > 100 µM (inactive); with NCI-H226, > 100 µM (inactive). Also, the GI50 was > 100 µM (inactive) in the experiment with SK-MEL-2; > 100 µM (inactive) in the experiment with SNB-19; > 100 µM (inactive) in the experiment on OVCAR-3; > 100 µM (inactive) in the experiment with RPMI-8226; over 100 µM with HCT-15; 66.1 µM (inactive) in the experiment with SR. Besides, the GI50 with EKVX and with SW-620 was > 100 µM (inactive) throughout.
Consider `CC(=O)NCc1c(C(N)=O)ncn1Cc1ccccc1`, for which the GI50 with SNB-75, with TK-10, in the experiment on COLO 205, in the experiment on HCT-116, in the experiment with NCI-H460 and in the experiment with A498 was > 100 µM (inactive) each time. Besides, the GI50 is > 100 µM (inactive) with SNB-19; > 100 µM (inactive) in the experiment on OVCAR-3; > 100 µM (inactive) with RPMI-8226; over 100 µM with HCT-15; > 100 µM (inactive) with EKVX; > 100 µM (inactive) in the experiment with SW-620.
Regarding `O/N=C1/C(=C/c2ccc(Oc3ccccc3)cc2)CCCC1C(NO)c1ccc(Oc2ccccc2)cc1` (stereo not drawn), the GI50 was 69.8 µM (inactive) in the experiment with SNB-75; 10.3 µM (inactive) in the experiment with TK-10; 19.3 µM (inactive) with COLO 205; 11.5 µM (inactive) with HCT-116; 27.9 µM (inactive) with NCI-H460; 25.1 µM (inactive) with NCI-H226. Also, the GI50 with SK-MEL-2 is 45.6 µM (inactive); in the experiment with SNB-19, > 100 µM (inactive); in the experiment with OVCAR-3 it was 32 µM (inactive); in the experiment on RPMI-8226, 18.2 µM (inactive); with HCT-15, 47 µM; with EKVX it was 81.3 µM (inactive). The GI50 in the experiment on SW-620 is 32.4 µM (inactive).
In the case of `CCS/C(=N\c1ccccc1)SC`, the GI50 with SNB-75 was 51.8 µM (inactive); in the experiment with TK-10 it was > 100 µM (inactive); in the experiment on COLO 205, > 100 µM (inactive); in the experiment on HCT-116, > 100 µM (inactive); in the experiment on NCI-H460 it was > 100 µM (inactive); with NCI-H226, > 100 µM (inactive). Also, the GI50 with SK-MEL-2 is > 100 µM (inactive); with SNB-19, > 100 µM (inactive); in the experiment with OVCAR-3, > 100 µM (inactive); in the experiment with RPMI-8226 it was > 100 µM (inactive); with HCT-15 it was over 100 µM; with EKVX, > 100 µM (inactive). The GI50 in the experiment with SW-620 was > 100 µM (inactive).
Turning to `CCCN(CCC)C1=Nc2ccccc2-n2cnnc2C1`, the GI50 in the experiment with TK-10, with COLO 205, in the experiment with HCT-116, with NCI-H460, in the experiment on NCI-H226 and with SK-MEL-2 was > 100 µM (inactive) each time. The GI50 in the experiment with SNB-19 was > 100 µM (inactive); in the experiment on OVCAR-3, > 100 µM (inactive); with RPMI-8226 it was > 100 µM (inactive); in the experiment on HCT-15, over 100 µM; in the experiment on SR, > 100 µM (inactive); in the experiment on EKVX it was > 100 µM (inactive). Moreover, the GI50 in the experiment on SW-620 was > 100 µM (inactive).
As for `COc1ccc(C(c2c(O)c3ccccc3n(-c3ccccc3)c2=O)c2c(O)c3ccccc3n(-c3ccccc3)c2=O)cc1`, the GI50 in the experiment on TK-10, with COLO 205, in the experiment with HCT-116, with NCI-H226, with SK-MEL-2 and in the experiment with SNB-19 was > 100 µM (inactive) in each case. For the same molecule, the GI50 in the experiment with OVCAR-3 was > 100 µM (inactive); in the experiment with RPMI-8226, > 100 µM (inactive); in the experiment with HCT-15, over 100 µM; in the experiment with SR, 72.4 µM (inactive); with EKVX, > 100 µM (inactive); in the experiment with SW-620, > 100 µM (inactive).
On to `O=c1c2ccccc2oc2nccnc12`, for which the GI50 with SNB-75, in the experiment with TK-10, in the experiment on COLO 205, in the experiment with HCT-116, in the experiment with NCI-H460 and in the experiment with A498 was > 100 µM (inactive) each time. Besides, the GI50 in the experiment on SK-MEL-2 is > 100 µM (inactive); with SNB-19, > 100 µM (inactive); in the experiment on OVCAR-3, > 100 µM (inactive); with RPMI-8226 it was > 100 µM (inactive); in the experiment with HCT-15 it was over 100 µM; with EKVX it was > 100 µM (inactive). In the experiment with SW-620, the GI50 was > 100 µM (inactive).
For the molecule `C#C[C@@]1(O)CCCC2=CC(=O)C[C@]21C`, the GI50 in the experiment with TK-10, in the experiment with COLO 205, in the experiment on NCI-H460, with NCI-H226, with SK-MEL-2 and with SNB-19 was > 100 µM (inactive) each time. Moreover, the GI50 in the experiment with OVCAR-3 is > 100 µM (inactive); in the experiment with RPMI-8226 it was > 100 µM (inactive); with HCT-15, over 100 µM; with SR, > 100 µM (inactive); with EKVX, > 100 µM (inactive); in the experiment with SW-620, > 100 µM (inactive).
As for `COc1cccc2ccc(C(=O)c3ccccc3)nc12`, the GI50 in the experiment with SNB-75, in the experiment on TK-10, in the experiment with COLO 205, with HCT-116, in the experiment on NCI-H226 and in the experiment on SK-MEL-2 was > 100 µM (inactive) in each case. Also, the GI50 with OVCAR-3 was > 100 µM (inactive); in the experiment with RPMI-8226 it was > 100 µM (inactive); in the experiment with HCT-15 it was over 100 µM; in the experiment on SR, > 100 µM (inactive); in the experiment on EKVX, > 100 µM (inactive); in the experiment with SW-620, > 100 µM (inactive).
In the case of `COC(=O)N/N=C/c1oc(-c2ccccc2)c(-c2ccccc2)c1[N+](=O)[O-]`, the GI50 in the experiment with SNB-75, in the experiment with TK-10, in the experiment with COLO 205, in the experiment with HCT-116, in the experiment with NCI-H460 and with NCI-H226 was > 100 µM (inactive) each time. In addition, the GI50 was > 100 µM (inactive) in the experiment with SNB-19; > 100 µM (inactive) with OVCAR-3; > 100 µM (inactive) with RPMI-8226; over 100 µM in the experiment with HCT-15; > 100 µM (inactive) in the experiment on SR; > 100 µM (inactive) in the experiment on SW-620.
`CCCC(C)NC1=C(NC(C)=O)C(=O)c2ccccc2C1=O` (stereo not drawn): the GI50 in the experiment with SNB-75, with TK-10, with COLO 205, with HCT-116, in the experiment with NCI-H460 and with NCI-H226 was > 100 µM (inactive) in each case. For the same molecule, the GI50 was > 100 µM (inactive) in the experiment on SK-MEL-2; > 100 µM (inactive) in the experiment with SNB-19; > 100 µM (inactive) in the experiment with OVCAR-3; over 100 µM in the experiment on HCT-15; > 100 µM (inactive) in the experiment on SR; > 100 µM (inactive) with EKVX. For the same molecule, the GI50 in the experiment with SW-620 was > 100 µM (inactive).
For the molecule `COC(=O)C[S+]([O-])c1ccccc1` (stereo not drawn), the GI50 is > 10 µM (inactive) in the experiment with SNB-75; 44 µM (inactive) with TK-10; 34.3 µM (inactive) in the experiment on COLO 205; 30.3 µM (inactive) with HCT-116; 59.8 µM (inactive) in the experiment on NCI-H460; 49.8 µM (inactive) in the experiment with A498. For the same molecule, the GI50 was 35.6 µM (inactive) in the experiment with SK-MEL-2; 37.8 µM (inactive) in the experiment with SNB-19; 31.3 µM (inactive) with OVCAR-3; 21.9 µM (inactive) with RPMI-8226; 28.7 µM in the experiment with HCT-15; 50.7 µM (inactive) with EKVX. Besides, the GI50 in the experiment on SW-620 is 38.3 µM (inactive).
As for `CC1=C(CO)C(=O)O[C@@H]([C@@H](C)[C@H]2CC[C@H]3[C@@H]4C[C@H]5O[C@]56[C@@H](O)C=CC(=O)[C@]6(C)[C@H]4CC[C@]23C)C1` [WITHAFERIN A], the GI50 in the experiment with SNB-75 was 4.11 µM (inactive); with TK-10 it was 0.641 µM (active); with COLO 205, 0.406 µM (active); in the experiment with HCT-116 it was 0.282 µM (active); in the experiment on NCI-H460, 2.91 µM (inactive); in the experiment with NCI-H226, 1.3 µM (inactive). For the same molecule, the GI50 in the experiment on SK-MEL-2 is 0.601 µM (active); in the experiment on SNB-19, 2.99 µM (inactive); with OVCAR-3 it was 1.05 µM (active); in the experiment with RPMI-8226, 0.247 µM (active); in the experiment on HCT-15, 0.446 µM; in the experiment with SR, 0.189 µM (active). Besides, in the experiment with SW-620, the GI50 was 0.199 µM (active).
